Assay results published in patent publication US12065436B2, “Cardiac sarcomere inhibitors” (Cytokinetics, Inc., priority 2018, dated 2024).

Target: bovine cardiac myofibrils (full-length cardiac myosin ATPase in the native sarcomere) (Bos taurus (Bovine), UniProt Q9BE39)
Assay: Skinned bovine cardiac myofibril ATPase assay (PK/LDH-coupled)
Type: biochemical
Conditions: Ca2+ activating to 75% of maximal rate; for CDMF75 IC15: concentration giving 15% inhibition; for IC50: read-out: CDMF75 IC50
Procedure, shortened: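 Triton-skinned bovine left-ventricle myofibrils (1 mg/mL) in PM 12 buffer (12 mM PIPES, 2 mM MgCl2, pH 6.8) with 50 μM ATP, 0.6 mM EGTA and CaCl2 set for 50% or 75% activation. Steady-state ATPase inhibition followed by PK/LDH-coupled NADH oxidation at 340 nm.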

Chain of bovine cardiac myofibrils (full-length cardiac myosin ATPase in the native sarcomere) (Q9BE39 whole entry): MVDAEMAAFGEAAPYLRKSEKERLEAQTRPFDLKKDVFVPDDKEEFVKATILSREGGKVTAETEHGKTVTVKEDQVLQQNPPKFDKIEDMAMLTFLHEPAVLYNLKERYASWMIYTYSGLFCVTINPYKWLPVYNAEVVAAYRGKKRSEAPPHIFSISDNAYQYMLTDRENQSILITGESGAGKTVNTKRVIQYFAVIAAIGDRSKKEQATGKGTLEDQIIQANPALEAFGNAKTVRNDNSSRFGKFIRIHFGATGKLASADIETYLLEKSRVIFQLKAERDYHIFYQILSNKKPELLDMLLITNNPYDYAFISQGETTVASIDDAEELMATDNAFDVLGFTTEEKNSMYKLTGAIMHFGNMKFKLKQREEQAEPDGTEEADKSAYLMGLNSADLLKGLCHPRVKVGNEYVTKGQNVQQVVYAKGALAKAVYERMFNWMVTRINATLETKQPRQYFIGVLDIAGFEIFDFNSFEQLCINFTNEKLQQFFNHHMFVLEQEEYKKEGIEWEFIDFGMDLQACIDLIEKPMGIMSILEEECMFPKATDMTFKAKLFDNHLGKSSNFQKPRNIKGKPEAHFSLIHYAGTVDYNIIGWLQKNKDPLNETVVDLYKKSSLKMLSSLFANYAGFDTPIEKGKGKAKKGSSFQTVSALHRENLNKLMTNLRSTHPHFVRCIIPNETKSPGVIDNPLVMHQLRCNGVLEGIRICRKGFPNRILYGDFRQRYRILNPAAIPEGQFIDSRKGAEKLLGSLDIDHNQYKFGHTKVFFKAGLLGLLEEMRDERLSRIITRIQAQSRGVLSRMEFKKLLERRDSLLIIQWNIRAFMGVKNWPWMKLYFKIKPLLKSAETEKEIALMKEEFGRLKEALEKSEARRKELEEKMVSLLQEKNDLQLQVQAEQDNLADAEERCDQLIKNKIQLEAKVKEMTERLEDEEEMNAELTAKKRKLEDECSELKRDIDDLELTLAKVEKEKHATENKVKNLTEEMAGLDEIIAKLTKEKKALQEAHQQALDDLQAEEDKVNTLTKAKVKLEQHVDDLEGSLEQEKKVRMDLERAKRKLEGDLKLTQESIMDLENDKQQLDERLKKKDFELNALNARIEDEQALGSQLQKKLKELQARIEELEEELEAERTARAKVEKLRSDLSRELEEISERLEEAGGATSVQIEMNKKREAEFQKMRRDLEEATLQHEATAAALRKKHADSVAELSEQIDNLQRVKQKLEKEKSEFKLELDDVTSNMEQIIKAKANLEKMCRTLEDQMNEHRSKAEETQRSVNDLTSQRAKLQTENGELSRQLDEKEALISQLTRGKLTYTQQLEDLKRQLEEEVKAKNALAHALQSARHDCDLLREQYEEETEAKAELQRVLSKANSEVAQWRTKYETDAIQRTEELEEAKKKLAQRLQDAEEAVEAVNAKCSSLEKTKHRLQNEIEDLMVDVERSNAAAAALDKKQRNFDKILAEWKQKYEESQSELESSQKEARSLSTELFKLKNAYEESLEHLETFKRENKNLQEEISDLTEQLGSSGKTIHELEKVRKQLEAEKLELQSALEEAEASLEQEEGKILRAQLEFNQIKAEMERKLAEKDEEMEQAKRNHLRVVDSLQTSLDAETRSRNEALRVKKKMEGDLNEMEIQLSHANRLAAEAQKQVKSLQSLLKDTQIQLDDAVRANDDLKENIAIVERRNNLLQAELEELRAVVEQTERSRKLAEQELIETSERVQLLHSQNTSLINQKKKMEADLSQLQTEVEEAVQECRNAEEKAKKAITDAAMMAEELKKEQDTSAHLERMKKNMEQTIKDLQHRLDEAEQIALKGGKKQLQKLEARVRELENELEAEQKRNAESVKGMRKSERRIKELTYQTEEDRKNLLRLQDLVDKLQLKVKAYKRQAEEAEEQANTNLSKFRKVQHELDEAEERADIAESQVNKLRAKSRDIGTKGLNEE
Chain of bovine cardiac myofibrils (full-length cardiac myosin ATPase in the native sarcomere) (P85100 whole entry partner): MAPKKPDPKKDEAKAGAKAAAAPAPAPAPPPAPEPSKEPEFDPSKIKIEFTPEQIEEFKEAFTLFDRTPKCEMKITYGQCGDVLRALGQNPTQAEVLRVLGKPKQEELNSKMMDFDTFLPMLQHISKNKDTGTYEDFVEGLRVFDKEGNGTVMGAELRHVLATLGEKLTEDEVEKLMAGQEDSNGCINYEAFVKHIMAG
Chain of bovine cardiac myofibrils (full-length cardiac myosin ATPase in the native sarcomere) (Q3SZE5 whole entry partner): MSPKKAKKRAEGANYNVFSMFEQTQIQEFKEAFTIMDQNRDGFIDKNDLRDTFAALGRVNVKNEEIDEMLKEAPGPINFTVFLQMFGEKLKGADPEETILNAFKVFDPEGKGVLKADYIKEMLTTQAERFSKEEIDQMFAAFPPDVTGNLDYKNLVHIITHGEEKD

Row | CDMF75 IC15 [µM] | IC50 [µM] | Compound
1 | 39.2 | > 39.2 | CC(C)(O)C(=O)N[C@@H]1CCc2cc(-c3noc(C(F)F)n3)ccc21 [Compound 290, (R)-N-(5-(5-(difluoromethyl)-1,2,4-oxadiazol-3-yl)-2,3-dihydro-1H-inden-1-yl)-2-hydroxy-2-methylpropanamide]
2 | 17.3 | > 39.2 | O=C(N[C@@H]1CCc2cc(-c3noc(C(F)F)n3)ccc21)OC1CNC1 [Compound 291, azetidin-3-yl (R)-(5-(5-(difluoromethyl)-1,2,4-oxadiazol-3-yl)-2,3-dihydro-1H-inden-1-yl)carbamate]
3 | 39.2 | > 39.2 | CC(C)NC(=O)N[C@@H]1CCc2cc(-c3noc(C(F)F)n3)ccc21 [Compound 292, (R)-1-(5-(5-(difluoromethyl)-1,2,4-oxadiazol-3-yl)-2,3-dihydro-1H-inden-1-yl)-3-isopropylurea]
4 | 20.4 | > 39.2 | O=C(N[C@@H]1CCc2cc(-c3noc(C(F)F)n3)ccc21)C1CCCO1 (stereo partly drawn) [Compound 293, N-((R)-5-(5-(difluoromethyl)-1,2,4-oxadiazol-3-yl)-2,3-dihydro-1H-inden-1-yl)tetrahydrofuran-2-carboxamide]
5 | 15.6 | > 39.2 | O=C(N[C@@H]1CCc2cc(-c3noc(C(F)F)n3)ccc21)C1CCOC1 (stereo partly drawn) [Compound 294, N-((R)-5-(5-(difluoromethyl)-1,2,4-oxadiazol-3-yl)-2,3-dihydro-1H-inden-1-yl)tetrahydrofuran-3-carboxamide]
6 | 4.9 | > 39.2 | CNC(=O)N[C@@H]1CCc2cc(-c3noc(C(F)F)n3)ccc21 [Compound 295, (R)-1-(5-(5-(difluoromethyl)-1,2,4-oxadiazol-3-yl)-2,3-dihydro-1H-inden-1-yl)-3-methylurea]
7 | 5.8 | > 39.2 | CCNC(=O)N[C@@H]1CCc2cc(-c3noc(C(F)F)n3)ccc21 [Compound 296, (R)-1-(5-(5-(difluoromethyl)-1,2,4-oxadiazol-3-yl)-2,3-dihydro-1H-inden-1-yl)-3-ethylurea]
8 | 39.2 | > 39.2 | O=C(NC1CCC1)N[C@@H]1CCc2cc(-c3noc(C(F)F)n3)ccc21 [Compound 297, (R)-1-cyclobutyl-3-(5-(5-(difluoromethyl)-1,2,4-oxadiazol-3-yl)-2,3-dihydro-1H-inden-1-yl)urea]
9 | 39.2 | > 39.2 | O=C(NC1CCCC1)N[C@@H]1CCc2cc(-c3noc(C(F)F)n3)ccc21 [Compound 298, (R)-1-cyclopentyl-3-(5-(5-(difluoromethyl)-1,2,4-oxadiazol-3-yl)-2,3-dihydro-1H-inden-1-yl)urea]
10 | 6.7 | 30.9 | CN(C)C(=O)N[C@@H]1CCc2cc(-c3noc(C(F)F)n3)ccc21 [Compound 299, (R)-3-(5-(5-(difluoromethyl)-1,2,4-oxadiazol-3-yl)-2,3-dihydro-1H-inden-1-yl)-1,1-dimethylurea]
11 | 12.3 | > 39.2 | O=C(N[C@@H]1CCc2cc(-c3noc(C(F)F)n3)ccc21)N1CCCC1 [Compound 300, (R)-N-(5-(5-(difluoromethyl)-1,2,4-oxadiazol-3-yl)-2,3-dihydro-1H-inden-1-yl)pyrrolidine-1-carboxamide]
12 | 9.5 | > 39.2 | O=C(N[C@@H]1CCc2cc(-c3noc(C(F)F)n3)ccc21)N1CCOCC1 [Compound 301, (R)-N-(5-(5-(difluoromethyl)-1,2,4-oxadiazol-3-yl)-2,3-dihydro-1H-inden-1-yl)morpholine-4-carboxamide]
13 | 39.2 | > 39.2 | CN1CCN(C(=O)N[C@@H]2CCc3cc(-c4noc(C(F)F)n4)ccc32)CC1 [Compound 302, (R)-N-(5-(5-(difluoromethyl)-1,2,4-oxadiazol-3-yl)-2,3-dihydro-1H-inden-1-yl)-4-methylpiperazine-1-carboxamide]
14 | 0.6 | 2.7 | COC(=O)N[C@@H]1CCc2cc(-c3noc(C)n3)ccc21 [Compound 303, methyl (R)-(5-(5-methyl-1,2,4-oxadiazol-3-yl)-2,3-dihydro-1H-inden-1-yl)carbamate]
15 | 0.3 | 1.2 | COC(=O)N[C@@H]1CCc2cc(-c3noc(C4CC4)n3)ccc21 [Compound 305, methyl (R)-(5-(5-cyclopropyl-1,2,4-oxadiazol-3-yl)-2,3-dihydro-1H-inden-1-yl)carbamate]
16 | 0.9 | 3.7 | COCc1nc(-c2ccc3c(c2)CC[C@H]3NC(=O)OC)no1 [Compound 306, methyl (R)-(5-(5-(methoxymethyl)-1,2,4-oxadiazol-3-yl)-2,3-dihydro-1H-inden-1-yl)carbamate]
17 | 0.6 | 2.9 | COC(=O)N[C@@H]1CCc2cc(-c3noc(C(C)C)n3)ccc21 [Compound 307, methyl (R)-(5-(5-isopropyl-1,2,4-oxadiazol-3-yl)-2,3-dihydro-1H-inden-1-yl)carbamate]

Row | CDMF75 IC15 [µM] | IC50 [µM] | Compound
18 | 0.7 | 2.8 | [2H]C([2H])([2H])c1nc(-c2ccc3c(c2)CC[C@H]3NC(=O)OC)no1 [Compound 308, methyl (R)-(5-(5-(methyl-d3)-1,2,4-oxadiazol-3-yl)-2,3-dihydro-1H-inden-1-yl)carbamate]
19 | 39.2 | > 39.2 | O=C(N[C@@H]1CCc2cc(-c3noc(C(F)F)n3)ccc21)C1CCC1 [Compound 309, (R)-N-(5-(5-(difluoromethyl)-1,2,4-oxadiazol-3-yl)-2,3-dihydro-1H-inden-1-yl)cyclobutanecarboxamide]
20 | 2.9 | 11.3 | O=C(N[C@@H]1CCc2cc(-c3noc(C(F)F)n3)ccc21)C1CC1 [Compound 310, (R)-N-(5-(5-(difluoromethyl)-1,2,4-oxadiazol-3-yl)-2,3-dihydro-1H-inden-1-yl)cyclopropanecarboxamide]
21 | 1.8 | 6.3 | [2H]C([2H])([2H])c1noc(-c2ccc3c(c2)OC[C@H]3NC(=O)c2cnn(C)c2)n1 [Compound 311, (S)-1-methyl-N-(6-(3-(methyl-d3)-1,2,4-oxadiazol-5-yl)-2,3-dihydrobenzofuran-3-yl)-1H-pyrazole-4-carboxamide]
22 | 0.7 | 2.4 | [2H]C([2H])([2H])c1noc(-c2ccc3c(c2)OC[C@H]3NC(=O)c2ccnn2C)n1 [Compound 312, (S)-1-methyl-N-(6-(3-(methyl-d3)-1,2,4-oxadiazol-5-yl)-2,3-dihydrobenzofuran-3-yl)-1H-pyrazole-5-carboxamide]
23 | 1.6 | 6.5 | Cc1noc(-c2ccc3c(c2)OC[C@H]3NC(=O)c2cnn(C)c2)n1 [Compound 313, (S)-1-methyl-N-(6-(3-methyl-1,2,4-oxadiazol-5-yl)-2,3-dihydrobenzofuran-3-yl)-1H-pyrazole-4-carboxamide]
24 | 0.7 | 2.4 | Cc1noc(-c2ccc3c(c2)OC[C@H]3NC(=O)c2ccnn2C)n1 [Compound 314, (S)-1-methyl-N-(6-(3-methyl-1,2,4-oxadiazol-5-yl)-2,3-dihydrobenzofuran-3-yl)-1H-pyrazole-5-carboxamide]
25 | 6.1 | 26.4 | O=C1C[C@H](C(=O)N[C@@H]2CCc3cc(-c4noc(C5CC5)n4)ccc32)N1 [Compound 315, (R)-N-((R)-5-(5-cyclopropyl-1,2,4-oxadiazol-3-yl)-2,3-dihydro-1H-inden-1-yl)-4-oxoazetidine-2-carboxamide]
26 | 15.6 | > 39.2 | O=C1C[C@@H](C(=O)N[C@@H]2CCc3cc(-c4noc(C5CC5)n4)ccc32)N1 [Compound 316, (S)-N-((R)-5-(5-cyclopropyl-1,2,4-oxadiazol-3-yl)-2,3-dihydro-1H-inden-1-yl)-4-oxoazetidine-2-carboxamide]
27 | 2.7 | 12.1 | CCC(=O)N[C@@H]1CCc2cc(-c3noc(CC)n3)ccc21 [Compound 317, (R)-N-(5-(5-ethyl-1,2,4-oxadiazol-3-yl)-2,3-dihydro-1H-inden-1-yl)propionamide]
28 | 1.3 | 5.3 | Cc1nc(-c2ccc3c(c2)CC[C@H]3NC(=O)OC2CCC2)no1 [Compound 319, cyclobutyl (R)-(5-(5-methyl-1,2,4-oxadiazol-3-yl)-2,3-dihydro-1H-inden-1-yl)carbamate]
29 | 0.7 | 3.1 | Cc1nc(-c2ccc3c(c2)CC[C@H]3NC(=O)OCC(C)C)no1 [Compound 320, isobutyl (R)-(5-(5-methyl-1,2,4-oxadiazol-3-yl)-2,3-dihydro-1H-inden-1-yl)carbamate]
30 | 0.4 | 1.3 | CCc1nc(-c2ccc3c(c2)CC[C@H]3NC(=O)OC2CCC2)no1 [Compound 321, cyclobutyl (R)-(5-(5-ethyl-1,2,4-oxadiazol-3-yl)-2,3-dihydro-1H-inden-1-yl)carbamate]
31 | 0.3 | 0.9 | CCc1nc(-c2ccc3c(c2)CC[C@H]3NC(=O)OCC(C)C)no1 [Compound 322, isobutyl (R)-(5-(5-ethyl-1,2,4-oxadiazol-3-yl)-2,3-dihydro-1H-inden-1-yl)carbamate]
32 | 0.3 | 0.9 | CCc1nc(-c2ccc3c(c2)CC[C@H]3NC(=O)OCC2CC2)no1 [Compound 323, cyclopropylmethyl (R)-(5-(5-ethyl-1,2,4-oxadiazol-3-yl)-2,3-dihydro-1H-inden-1-yl)carbamate]
33 | 0.8 | 3.2 | CCc1nc(-c2ccc3c(c2)CC[C@H]3NC(=O)OCCOC)no1 [Compound 324, 2-methoxyethyl (R)-(5-(5-ethyl-1,2,4-oxadiazol-3-yl)-2,3-dihydro-1H-inden-1-yl)carbamate]
